Data reported in patent US9211242B2, “Nail-hardening cosmetic composition, use of aldehydes to harden and strengthen nails, and method for applying same” (FIABILA, priority 2009, dated 2015).

Assays:
[1] = Aging and yellowing tests; format: physicochemical
Procedure: Various aliphatic aldehydes were incorporated into a cosmetic composition, having a formulation corresponding to example 2, at concentrations respectively of 0.001%, 0.002%, 0.005% and 0.01%.
These were methylbutyraldehyde (by way of comparison), hexanal, nonanal, trans-4-decenal, undecanal and undecylenic aldehyde.
The aging, and in particular the tendency toward yellowing, of each composition were tested. The various tests performed comprise holding for one month in an oven at 45° C. and four months in an oven at 50° C., and also exposure to “SUNTEST CPS+”, i.e. in a sealed chamber, regulated at 50° C. under a 500 Watt/m^2 UV/visible lamp for 3×10 hours.
The yellowing was evaluated relative to control compositions having identical formulations, kept at room temperature (20-25° C.), in the dark, for the same duration.

nails = test: In vivo comparison of hexanal composition with citral composition, one hand each; parameters: species or system people; conditions: same concentrations, panel of 22, four weeks
Source text: The composition of example 1 and also a composition 1a identical to that of example 1, but in which the hexanal has been replaced by citral, in the same concentrations, were the subject of in vivo tests on a new panel of 22 people under the same conditions as those of the tests from example 1. Each person applied the composition with hexanal to the nails of one hand, and the composition with citral to the nails of the other hand. The right hand/left hand choice was random.

fingernails = test: In vivo tests of efficacy on a panel of people, polish applied to nails; conditions: hexanal 0.05% by weight, panel of 22, four weeks
Source text: The composition from example 1 was the subject of in vivo tests on a panel of 22 people aged at least 30 years old, over four weeks, in order to evaluate the efficacy and tolerance. […] The polish was applied under normal usage conditions (namely three applications per week).
The marks of general satisfaction with the cosmetic composition oscillated between 16.9 and 18.3/20.
The marks of general satisfaction with the cosmetic composition oscillated between 16 and 17.3/20.

[2] = 0.01% by weight in composition, aging tests relative to controls
[3] = 0.01% in composition, one month in an oven at 45° C., relative to controls at room temperature in the dark

| Yellowing [1, 2] | Yellowing [1, 3] | Molecule | also measured |
| --- | --- | --- | --- |
| did not exhibit yellowing |  | CCCCCCCCC=O [nonanal] |  |
| did not exhibit yellowing |  | CCCCC/C=C/CCC=O [trans-4-decenal] |  |
|  | exhibited yellowing | C=CCCCCCCCCC=O [undecylenic aldehyde, 10-undecenal] |  |
|  | exhibited yellowing | methylbutyraldehyde [reference compound] |  |
| did not exhibit yellowing |  | CCCCCC=O [hexanal] | Superiority to citral in improvement of brittle nails (nails): +10%; Superiority to citral in improvement of nail hardness (nails): +8.5%; Superiority to citral in improvement of nail weakness (nails): +18%; Subjects who noticed an overall improvement in the quality of their nails (fingernails): more than 90% |
| did not exhibit yellowing |  | CCCCCCCCCCC=O [undecanal] |  |
